This note sets out measurements from US9610274B2, “Methods for treating bipolar disorder” (priority 2010, dated 2017).

Type in all cases: in vivo
Assay [1] has as its system homozygous mutant dopamine transporter knockout (KO) mice. Briefly: Spontaneous activity in the open field, dopamine transporter KO mice. The conditions noted are these: single SC injection, test compound 10, 30, 100 mg/kg, amphetamine 2 mg/kg, 90 min post-injection, relative to vehicle. Here is the method: Male and female wild-type and homozygous mutant dopamine transporter KO mice (n˜10 mice/genotype/agent; produced by in vivo homologous recombination and bred at Duke University Medical Center, Durham, N.C.) were tested for spontaneous activity in the open field following a single injection of the vehicle or compound. […] All drugs were given in a volume of 5 mL/kg. Animals were returned to the open field for an additional 90 min. Spontaneous activity was evaluated in an automated Omnitech Digiscan apparatus (Accuscan Instruments, Columbus, Ohio). Activity was summated at 5 min intervals over the 2 h period of testing. Horizontal activity or locomotion was measured in terms of the total distance covered in cm, vertical activity or rearing was expressed in terms of the total numbers of vertical beam breaks, and stereotypy was quantified in terms of repetitive breaks of a given beam or beams with intervals of less than 1 sec. For the analyses, 10 WT and 10 KO mice were run in each of the treatment groups with approximately equal numbers of males and females assigned to each group. Data were analyzed by the Statistical Package for Social Sciences programs (version 11.0 for Windows; SPSS Science, Chicago, Ill.). The results for each dependent variable were analyzed by repeated analyses of variance (RMANOVA) for within subjects effects (group differences over time) and between-subjects effects (tests of main effects and interactions). Bonferroni corrected pair-wise comparisons were used as the post-hoc tests. A p <0.05 was considered significant.

In a further assay the test system is wild-type mice. Briefly: Spontaneous activity in the open field, wild-type mice. The note with it: WT mice; amphetamine 2 mg/kg SC; relative to vehicle. Here is the method:
Male and female wild-type and homozygous mutant dopamine transporter KO mice (n˜10 mice/genotype/agent; produced by in vivo homologous recombination and bred at Duke University Medical Center, Durham, N.C.) were tested for spontaneous activity in the open field following a single injection of the vehicle or compound. Mice were placed into the open field for 30 min and administered SC the vehicle (sterile water), 2 mg/kg amphetamine, or three concentrations of the test compound (10, 30, 100 mg/kg). All drugs were given in a volume of 5 mL/kg. Animals were returned to the open field for an additional 90 min. Spontaneous activity was evaluated in an automated Omnitech Digiscan apparatus (Accuscan Instruments, Columbus, Ohio). […] Horizontal activity or locomotion was measured in terms of the total distance covered in cm, vertical activity or rearing was expressed in terms of the total numbers of vertical beam breaks, and stereotypy was quantified in terms of repetitive breaks of a given beam or beams with intervals of less than 1 sec. […] Data were analyzed by the Statistical Package for Social Sciences programs (version 11.0 for Windows; SPSS Science, Chicago, Ill.). The results for each dependent variable were analyzed by repeated analyses of variance (RMANOVA) for within subjects effects (group differences over time) and between-subjects effects (tests of main effects and interactions). […]

The subject of assay [2] is adult human subjects with moderate or severe major depression without psychotic features. The assay can be described thus: Randomized double-blind placebo- and active-controlled 6-week study in major depression. The note with it: paroxetine 20 mg/day; for MADRS response rate / MADRS remission rate: Week 6; for MADRS response rate: >50% improvement in MADRS total score; for MADRS remission rate: MADRS total score less than 9. Here is the method: The primary objective of this study was to determine the efficacy of 2 target doses of test compound (200 and 400 mg/day) in comparison with placebo during 6 weeks of treatment in adult human subjects with moderate or severe major depression without psychotic features. An active comparator (paroxetine) was included to assist in distinguishing a negative study from a failed study. In addition, an exit interview was intended to gather information on unexpected benefits of the test compound in order to refine the clinical development program. […] In addition, positive effects of the test compound on ratings of physical energy/fitness, reduction in sadness or depression and mental energy or motivation.
This was a randomized, double-blind, parallel-group, active, and placebo-controlled, multicenter study conducted in the U.S. (23 centers) and Canada (4 centers). There were 2 phases: a pretreatment phase (screening/washout and a baseline visit) and a 6-week, double-blind treatment phase. Paroxetine, a positive control, was included to evaluate assay sensitivity. After washout (if needed) of prohibited substances, subjects were randomly assigned (1:1:1:1) to receive the test compound titrated to a target dose of 200 mg/day or 400 mg/day, matching placebo, or a fixed dose (20 mg/day) of paroxetine. Study drug was given twice daily for 6 weeks. Efficacy and safety were assessed weekly during the double-blind phase. Subjects completing the study underwent an Exit Interview (“Your Health and Well-Being”) and completed an Assessment of Benefits of Clinical-trial Drug-treatment (ABCD) questionnaire (U.S. sites only).

A further assay relates to isolated mice. The assay can be described thus: Isolation-induced fighting in mice. The note with it: Mus musculus. Here is the method: Male CD-1 mice (15-20 g) were utilized in this experiment. The test compound (15, 22 and 30 mg/kg) was dissolved in physiological saline (0.9%) and administered orally (PO) in a volume of 1 mL/100 g body weight.
Mice were isolated for up to 8 weeks in individual solid walled wire cages (24×20×17 cm). The animals were not disturbed except to replenish food. Aggression was tested by placing an intruder mouse into the home cage of the resident animal. Aggression was characterized by an attack on the “intruder” during a three minute period. […] Only those resident mice displaying fighting behavior were selected. […] ED50 values were calculated from the percent inhibition of fighting in computer program based on probit analysis.

[3] abbreviates: ITT (LOCF), change from baseline at Week 6.
Setting [4] is: Per-Protocol (LOCF), change from baseline at Week 6.

The structures appear in SMILES notation.

For `CC(N)Cc1ccccc1` (stereo not drawn) [Amphetamine, amphetamine, reference compound], the “spontaneous activity (locomotor, rearing and stereotypical activities)” value was “decreased them in KO animals” in assay [1]; “increased locomotor, rearing and stereotypical activities in WT mice” in the assay on wild-type mice.

Turning to `Fc1ccc([C@@H]2CCNC[C@H]2COc2ccc3c(c2)OCO3)cc1` [Paroxetine, paroxetine, reference compound], in assay [2] (ITT (LOCF)), the MADRS response rate came to 48% and the MADRS remission rate came out at 26%. In addition, in assay [2] (setting [3]), the “3 Atypical items of HAM-D 31, mean result” value is given as −0.6; the “CGI-S score, mean result” value is reported as −1.5; the “MADRS core mood subscale, mean result” value is listed as −9.7; the “MADRS sadness (Items 1 + 2), mean result” value was −3.9. Further, in assay [2] (setting [3]), the “MADRS total score (primary), mean result” value was −14.1. Besides, the “superiority to placebo on the primary endpoint (change from baseline at Week 6 in MADRS total score)” value in assay [2] (ITT (LOCF), test compound 200 mg and 400 mg) is recorded as “statistically significant superiority to placebo”. In assay [2] (Per-Protocol (LOCF)), this compound displayed an MADRS response rate of 60% and an MADRS remission rate of 35%. In assay [2] (setting [4]), the “CGI-S score, mean result” value was −1.9 and the “MADRS total score, mean result” value was −17.1. Also, the “ABCD questionnaire items with statistically significant superiority to placebo” value in assay [2] (post hoc analyses, of 51 items, U.S. sites) was determined as 14 items.

In the assay with isolated mice (1 h, 15 mg/kg PO, 60 min after dosing), `CN(C)CCCN1c2ccccc2CCc2ccccc21` [Imipramine, imipramine, reference compound] registered an inhibition at 15 mg/kg of 20%. In the assay with isolated mice (1 h, 30 mg/kg PO, 60 min after dosing), this compound had an inhibition at 30 mg/kg of 50%. In the assay with isolated mice (PO, inhibition of isolation-induced fighting, probit analysis, read-out: ED50 (mg/kg, PO) (confidence limits)), the ED50 was around 30 mg/kg.

As a reminder, the inhibition is the share of the control response that was lost under treatment. Higher therefore signals a response far below the control.
